In the test the test system is BDF1 mice, colon carcinoma 38 sc, T/C %. Kind of test: NCI In Vivo Anticancer Drug Screen. Data for tumor model Colon Carcinoma 38 (subcutaneous) in B6D2F1 (BDF1) mice. The note with it: endpoint: median tumor weight (est.), higher = larger tumour. The procedure, abridged: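 T/C readout: treated group (T) measurement over vehicle control group (C) measurement. Endpoint is survival or tumor size in mice bearing a transplanted tumor.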

[1] abbreviates: dose: 12.5 mg/kg/injection, schedule: Q07DX002 (ip), vehicle: saline with Tween-80.
Where [2] appears, read: dose: 200.0 mg/kg/injection, schedule: Q07DX002 (ip), vehicle: saline with Tween-80.
The mark [3] stands for this setting: dose: 400.0 mg/kg/injection, schedule: Q07DX002 (ip), vehicle: saline with Tween-80.
Where [4] appears, read: dose: 1.0 mg/kg/injection, schedule: Q07DX002 (ip), vehicle: saline.
[5] abbreviates: dose: 8.0 mg/kg/injection, schedule: Q07DX002 (ip), vehicle: saline.
Setting [6] is: dose: 12.5 mg/kg/injection, schedule: Q07DX002 (ip), vehicle: Klucel (hydroxypropylcellulose) (HPC).
The mark [7] stands for this setting: dose: 25.0 mg/kg/injection, schedule: Q07DX002 (ip), vehicle: Klucel (hydroxypropylcellulose) (HPC).
Setting [8] is: dose: 50.0 mg/kg/injection, schedule: Q07DX002 (ip), vehicle: Klucel (hydroxypropylcellulose) (HPC).
The mark [9] stands for this setting: dose: 6.25 mg/kg/injection, schedule: Q07DX002 (ip), vehicle: saline with Tween-80.

Several values for one entry are separate records, joined by “and”; a condition that tells them apart may be missing. Equal values may be shown once. Records with an inconclusive call do not appear.

The text below walks through data of PubChem BioAssay AID212 (DTP/NCI, 2004).

Regarding `CC1CC(C)CC(C)C(O)/C(C#N)=C/C=C/CC(C2CCCC2C(=O)O)OC(=O)CC(O)C(C)C1` (centres undefined), the T/C runs as follows: (dose: 0.13 mg/kg/injection, schedule: Q07DX003 (ip), vehicle: Klucel (hydroxypropylcellulose) (HPC)) 84 % of control; (dose: 0.25 mg/kg/injection, schedule: Q07DX003 (ip), vehicle: Klucel (hydroxypropylcellulose) (HPC)) 80 % of control; (dose: 0.5 mg/kg/injection, schedule: Q07DX003 (ip), vehicle: Klucel (hydroxypropylcellulose) (HPC)) 113 % of control; (dose: 1.0 mg/kg/injection, schedule: Q07DX002 (ip), vehicle: Klucel (hydroxypropylcellulose) (HPC)) 92 % of control; (dose: 1.0 mg/kg/injection, schedule: Q07DX003 (ip), vehicle: Klucel (hydroxypropylcellulose) (HPC)) 93 % of control; (dose: 2.0 mg/kg/injection, schedule: Q07DX003 (ip), vehicle: Klucel (hydroxypropylcellulose) (HPC)) 69 % of control. Besides, the T/C is, setting by setting: (dose: 4.0 mg/kg/injection, schedule: Q07DX002 (ip), vehicle: Klucel (hydroxypropylcellulose) (HPC)) 106 % of control; (dose: 4.0 mg/kg/injection, schedule: Q07DX003 (ip), vehicle: Klucel (hydroxypropylcellulose) (HPC)) 88 % of control; (dose: 8.0 mg/kg/injection, schedule: Q07DX002 (ip), vehicle: Klucel (hydroxypropylcellulose) (HPC)) 75 % of control.
Take `CC(C)[C@]12O[C@H]1[C@@H]1O[C@]13[C@]1(O[C@H]1C[C@H]1C4=C(C(=O)OC4)[C@@H](O)C[C@@]13C)[C@@H]2O`: the T/C reads like this: (dose: 25.0 micrograms/kg/injection, schedule: Q07DX002 (ip), vehicle: saline + alcohol) 113 % of control; (dose: 100.0 micrograms/kg/injection, schedule: Q07DX002 (ip), vehicle: saline + alcohol) 113 % of control; (dose: 200.0 micrograms/kg/injection, schedule: Q07DX002 (ip), vehicle: saline + alcohol) 109 % of control; (dose: 400.0 micrograms/kg/injection, schedule: Q07DX002 (ip), vehicle: saline + alcohol) 63 % of control.
Take `BrC1CC(Br)c2c1c1c(c3c2C(Br)CC3Br)C(Br)CC1Br` (centres undefined): the T/C is, setting by setting: under setting [1], 157 % of control; (dose: 25.0 mg/kg/injection, schedule: Q07DX002 (ip), vehicle: saline with Tween-80) 94 % of control and 103 % of control; under setting [2], 80 % of control and 86 % of control; under setting [3], 81 % of control and 105 % of control.
On to `C[C@]12CC[C@H]3[C@@H](CCC4=C[C@@H](OC5OCC(OC6OC(CO)C(O)C(O)C6O)C(O)C5O)CC[C@@]43C=O)[C@@]1(O)CCC2C1=CC(=O)OC1` (some centres undefined), for which the T/C by setting is: (dose: 0.31 mg/kg/injection, schedule: Q07DX003 (ip), vehicle: Klucel (hydroxypropylcellulose) (HPC)) 106 % of control; (dose: 1.25 mg/kg/injection, schedule: Q07DX003 (ip), vehicle: Klucel (hydroxypropylcellulose) (HPC)) 53 % of control; (dose: 2.5 mg/kg/injection, schedule: Q07DX003 (ip), vehicle: Klucel (hydroxypropylcellulose) (HPC)) 102 % of control; (dose: 5.0 mg/kg/injection, schedule: Q07DX003 (ip), vehicle: Klucel (hydroxypropylcellulose) (HPC)) 105 % of control; (dose: 10.0 mg/kg/injection, schedule: Q07DX003 (ip), vehicle: Klucel (hydroxypropylcellulose) (HPC)) 95 % of control.
Turning to `CCCCCC(O)C1C(=O)OC(C)C(O)/C=C/C=C/C=C/C=C/C=C(\C)C(O)C(O)C(O)CC(O)CC(O)CC(O)CC(O)CC1O` (centres undefined), the T/C is 92 % of control (dose: 0.5 mg/kg/injection, schedule: Q07DX002 (ip), vehicle: saline); 118 % of control under setting [4]; 90 % of control (dose: 4.0 mg/kg/injection, schedule: Q07DX002 (ip), vehicle: saline); 95 % of control under setting [5].
Consider `Nc1ccc(Cn2ccc3c4c(N)nc(N)nc4ccc32)cc1`, for which the T/C reads like this: (dose: 1.25 mg/kg/injection, schedule: Q07DX002 (ip), vehicle: saline with Tween-80) 90 % of control; (dose: 2.5 mg/kg/injection, schedule: Q07DX002 (ip), vehicle: saline with Tween-80) 93 % of control and 106 % of control; (dose: 40.0 mg/kg/injection, schedule: Q07DX002 (ip), vehicle: saline with Tween-80) 59 % of control.
Turning to `COc1ccc2[nH]c3c(c2c1)CCNC3CC(C)CCC=C(C)C` (centres undefined), the T/C by setting is: under setting [6], 88 % of control and 97 % of control; under setting [7], 82 % of control; under setting [8], 57 % of control.
For `Cc1ccc[c]([Hg][Cl])c1N=Nc1ccccc1`, the T/C under setting [9] was 69 % of control.
Turning to `COC(=O)Nc1ccc(Cc2ccc(NC(=O)OC)cc2)cc1`, the T/C is 60 % of control under setting [9]; 87 % of control and 102 % of control under setting [3].
Turning to `C=CCNc1nc2c(s1)CCc1cc(OC)c(OC)cc1-2`, the T/C under setting [1] was 94 % of control; the T/C under setting [2] is 109 % of control and 111 % of control; the T/C under setting [3] was 73 % of control.
On to `[O-][n+]1c(CN2CCCCC2)nc2cccc3c2c1-c1ccccc1-3`, for which the T/C runs as follows: under setting [1], 66 % of control; (dose: 50.0 mg/kg/injection, schedule: Q07DX002 (ip), vehicle: saline with Tween-80) 47 % of control; under setting [2], 57 % of control; under setting [3], 72 % of control and 81 % of control.
As for `CC(=O)OCC1OC(OC2=C(CC=C(C)C)C(=O)c3ccccc3C2=O)C(OC(C)=O)C(OC(C)=O)C1OC(C)=O` (centres undefined), the T/C is 205 % of control and 81 % of control under setting [6]; 181 % of control under setting [7]; 113 % of control and 103 % of control under setting [8]; 151 % of control (dose: 100.0 mg/kg/injection, schedule: Q07DX002 (ip), vehicle: Klucel (hydroxypropylcellulose) (HPC)); 190 % of control (dose: 200.0 mg/kg/injection, schedule: Q07DX002 (ip), vehicle: Klucel (hydroxypropylcellulose) (HPC)).
`Clc1ccc(C(c2ccccc2Cl)C(Cl)Cl)cc1` (centres undefined): the T/C was 39 % of control (dose: 25.0 mg/kg/injection, schedule: Q07DX003 (ip), vehicle: saline with Tween-80); 59 % of control (dose: 50.0 mg/kg/injection, schedule: Q07DX003 (ip), vehicle: saline with Tween-80); 80 % of control (dose: 100.0 mg/kg/injection, schedule: Q07DX003 (ip), vehicle: saline with Tween-80); 63 % of control (dose: 200.0 mg/kg/injection, schedule: Q07DX003 (ip), vehicle: saline with Tween-80); 95 % of control (dose: 400.0 mg/kg/injection, schedule: Q07DX003 (ip), vehicle: saline with Tween-80).
`Nc1ncnc2c1ncn2C1C=C(CO)C(O)C1O` (centres undefined): the T/C under setting [4] was 74 % of control and 84 % of control; the T/C (dose: 2.0 mg/kg/injection, schedule: Q07DX002 (ip), vehicle: saline) is 93 % of control; the T/C under setting [5] was 107 % of control.
Turning to `Nc1nccc2c1ncn2C1OC(CO)C(O)C1O` (centres undefined), the T/C by setting is: (dose: 4.6 mg/kg/injection, schedule: Q03HX024 (ip), vehicle: saline with Tween-80) 103 % of control; (dose: 9.3 mg/kg/injection, schedule: Q03HX024 (ip), vehicle: saline with Tween-80) 114 % of control; (dose: 18.7 mg/kg/injection, schedule: Q03HX024 (ip), vehicle: saline with Tween-80) 82 % of control and 92 % of control; (dose: 75.0 mg/kg/injection, schedule: Q03HX024 (ip), vehicle: saline with Tween-80) 93 % of control.
As to `O=C1CN(CCN2CC(=O)N(CN3CCOCC3)C(=O)C2)CC(=O)N1CN1CCOCC1`, the T/C was 168 % of control (dose: 12.5 mg/kg/injection, schedule: Q07DX002 (ip), vehicle: water); 158 % of control (dose: 25.0 mg/kg/injection, schedule: Q07DX002 (ip), vehicle: water); 36 % of control (dose: 50.0 mg/kg/injection, schedule: Q07DX002 (ip), vehicle: water); 113 % of control and 90 % of control (dose: 100.0 mg/kg/injection, schedule: Q07DX002 (ip), vehicle: water); 57 % of control (dose: 200.0 mg/kg/injection, schedule: Q07DX002 (ip), vehicle: water).
